Molecular target: T1, LOX10 (OsLOX10) (Oryza sativa, UniProt B7EMC8)
T1 construct: full-length CDS (2607 bp, 868 aa) in pET28a(+), His tag, E. coli BL21(DE3) lysate supernatant, about 98 kDa plus tag (band at 100 kDa)
Assay: KI-I2 starch staining (colour)
Format: biochemical
Details: E. coli lysate supernatant with recombinant LOX10, 0.5 µg protein/µl and dilutions; controls pET28a(+) supernatant and PBS

T1 sequence (B7EMC8 1-868): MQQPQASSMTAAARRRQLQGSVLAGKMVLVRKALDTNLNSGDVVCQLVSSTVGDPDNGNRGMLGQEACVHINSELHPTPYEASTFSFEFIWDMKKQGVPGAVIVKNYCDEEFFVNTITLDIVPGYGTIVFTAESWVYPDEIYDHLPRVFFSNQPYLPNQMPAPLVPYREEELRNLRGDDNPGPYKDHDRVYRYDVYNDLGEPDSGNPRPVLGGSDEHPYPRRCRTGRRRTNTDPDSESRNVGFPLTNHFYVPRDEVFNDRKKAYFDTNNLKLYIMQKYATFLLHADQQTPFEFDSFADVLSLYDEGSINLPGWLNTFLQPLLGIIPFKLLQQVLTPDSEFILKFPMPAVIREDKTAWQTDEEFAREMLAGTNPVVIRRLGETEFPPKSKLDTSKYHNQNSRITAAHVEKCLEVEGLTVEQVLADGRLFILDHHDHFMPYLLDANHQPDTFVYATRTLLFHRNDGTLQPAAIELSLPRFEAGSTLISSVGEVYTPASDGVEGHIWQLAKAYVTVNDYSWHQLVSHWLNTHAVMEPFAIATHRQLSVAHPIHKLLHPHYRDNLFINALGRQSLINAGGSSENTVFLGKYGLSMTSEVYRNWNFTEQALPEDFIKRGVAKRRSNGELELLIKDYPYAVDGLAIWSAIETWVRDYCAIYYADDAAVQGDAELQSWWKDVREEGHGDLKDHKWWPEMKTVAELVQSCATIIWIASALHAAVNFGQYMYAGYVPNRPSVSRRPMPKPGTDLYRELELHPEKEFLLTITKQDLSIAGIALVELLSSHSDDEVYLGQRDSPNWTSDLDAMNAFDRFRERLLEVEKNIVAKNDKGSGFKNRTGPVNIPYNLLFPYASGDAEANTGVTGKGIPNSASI

CCCCC/C=C\C/C=C\CCCCCCCC(=O)O [LA, linoleic acid]
KI-I2 starch staining (colour): The KI-I2 staining showed that LOX10 could metabolize the substrate LA to produce starch
